# Laboratory results: EP0444659B1, “A pharmaceutical solution comprising derivatives of FK506” (FUJISAWA PHARMACEUTICAL CO., LTD., priority 1990, dated 1991)
# Legend:
# Assay type in all cases: physicochemical
# [1] = remaining percentage of FK 506 in aqueous solution with large amount of surface active agent (storage stability); conditions: FK 506 dissolved in water in the presence of large amount of surface active agent; Table 2 is an image
# [2] = solubility of FK 506 in nonaqueous solvents; conditions: for solubility: ambient temperature
# [3] = dilution of the solution with physiological saline: clarity, turbidity and crystal separation
# Protocol: Nonaqueous solvent is, at the time of administrating into the human vascular tract, usually diluted with aqueous solvent such as physiological saline, since nonaqueous solvent has hemolysis action.
# The experimental solution (1ml) of the following prescription 3 consisting of FK 506, surface active agent and nonaqueous solvent was diluted with physiological saline (100ml) to find that the clear appearance of prescription was kept unchanged.
# Then several prescriptions of clear solution were further prepared altering the concentration of FK 506, the kind and the concentration of surface active agent, and were tested how change the clearity of the solution and whether separate out the crystal or not under the several condition of different degree of dilution.
# physchem = assay: physchem
# Excerpt: From the above point of view, the inventors of the present invention studied, at first, the solubility of the compound (I) in water. As a test compound, the inventors selected the following compound as a free form which has an excellent immunosupressive activity and is called FK 506 hereafter. R^1, R^2, R^8, R^23 = hydrogen R^7, R^9 = hydroxy R^14, R^15, R^16, R^17, R^18, R^19, R^22 = methyl R^10 = allyl R^20 = R^20a,H (R^20a = methoxy) X, Y = oxygen R^21 = R^21a,H (R^21a = hydroxy) n = 2 R^3, R^4 = form a second bond between the vicinal carbon atoms to which they are attached R^5, R^6 = form a second bond between the vicinal carbon atoms to which they are attached
# The solubility of FK 506 in water is at most 3 µg/ml under ambient temperature. Accordingly, it is decided to add a surface active agent in order to increase the solubility of FK 506 in water to the level where the clinically effective amount of FK 506 is dissolved. […] As a surface active agent, a castor oil-surface active agent i.e., HCO-10, HCO-40, HCO-60 (trademark, prepared by Nikko Chemicals, respectively) are selected for examination.
# It is conjectured from the result shown in Table 1 that the concentration of the surface active agent should be controlled at 1.43w/v% [about 150mg of the surface active agent against 1mg of FK506] to dissolve 0.1mg of FK 506 in 1ml of water, calculating based on the result that 0.035mg of FK 506 is dissolved in 1ml of 0.5w/v% HCO-60 aqueous solution at 20 °C. Accordingly, if it is desired to prepare 5mg/ml aqueous solution FK 506, the concentration of the surface active agent is estimated to come up to 87w/v% from the calculation based on the result of HCO-60, 20w/v%, 20°C. Such […] high concentration of surface active agent in aqueous solution should not be realized in practice of clinical field.
smiles,measurement,setting,value
"C=CCC1C=C(C)CC(C)CC(OC)C2OC(O)(C(=O)C(=O)N3CCCCC3C(=O)OC(C(C)=CC3CCC(O)C(OC)C3)C(C)C(O)CC1=O)C(C)CC2OC (stereo not shown) [FK 506, 17-allyl-1,14-dihydroxy-12-[2-(4-hydroxy-3-methoxycyclohexyl)-1-methylvinyl]-23, 25-dimethoxy-13,19,21,27-tetramethyl-11, 28-dioxa-4-azatricyclo-[22.3.1.0^4.9] octacos-18-ene-2,3,10,16-tetraone]",remaining percentage of FK 506 in aqueous solution (storage stability),[1],stability for long period storage is not expectable
same,concentration at which FK 506 is dissolved in the experimented solvent,"[2]; PEG 400, ethanol and propylene glycol (summary of Table 3)",more than 40 mg/ml
same,solubility,[2]; Solvent Ethanol,> 300000 µg/mL
same,solubility,[2]; Solvent PEG 400,> 40000 µg/mL
same,solubility,[2]; Solvent Propylene glycol,> 40000 µg/mL
same,Period till solution becomes turbid to crystallize FK506,"[3]; FK 506 5 mg/ml, dilution times with physiological saline 2, Cremophor®EL, ethanol/surface active agent 35/65",≧7 days
same,Period till solution becomes turbid to crystallize FK506,"[3]; FK 506 5 mg/ml, dilution times with physiological saline 2, Cremophor®EL, ethanol/surface active agent 80/20",≧7 days
same,Period till solution becomes turbid to crystallize FK506,"[3]; FK 506 5 mg/ml, dilution times with physiological saline 2, HCO-40, ethanol/surface active agent 40/60",≧7 days
same,Period till solution becomes turbid to crystallize FK506,"[3]; FK 506 5 mg/ml, dilution times with physiological saline 2, HCO-40, ethanol/surface active agent 80/20",≧7 days
same,Period till solution becomes turbid to crystallize FK506,"[3]; FK 506 5 mg/ml, dilution times with physiological saline 2, HCO-60, ethanol/surface active agent 35/65",≧7 days
same,Period till solution becomes turbid to crystallize FK506,"[3]; FK 506 5 mg/ml, dilution times with physiological saline 2, HCO-60, ethanol/surface active agent 60/40",≧7 days
same,Period till solution becomes turbid to crystallize FK506,"[3]; FK 506 5 mg/ml, dilution times with physiological saline 2, HCO-60, ethanol/surface active agent 80/20",≧7 days
same,Period till solution becomes turbid to crystallize FK506,"[3]; FK 506 5 mg/ml, dilution times with physiological saline 100, Cremophor®EL, ethanol/surface active agent 35/65",≧7 days
same,Period till solution becomes turbid to crystallize FK506,"[3]; FK 506 5 mg/ml, dilution times with physiological saline 100, Cremophor®EL, ethanol/surface active agent 80/20",≧7 days
same,Period till solution becomes turbid to crystallize FK506,"[3]; FK 506 5 mg/ml, dilution times with physiological saline 100, HCO-40, ethanol/surface active agent 40/60",≧7 days
same,Period till solution becomes turbid to crystallize FK506,"[3]; FK 506 5 mg/ml, dilution times with physiological saline 100, HCO-40, ethanol/surface active agent 80/20",≧7 days
same,Period till solution becomes turbid to crystallize FK506,"[3]; FK 506 5 mg/ml, dilution times with physiological saline 100, HCO-60, ethanol/surface active agent 35/65",≧7 days
same,Period till solution becomes turbid to crystallize FK506,"[3]; FK 506 5 mg/ml, dilution times with physiological saline 100, HCO-60, ethanol/surface active agent 60/40",≧7 days
same,Period till solution becomes turbid to crystallize FK506,"[3]; FK 506 5 mg/ml, dilution times with physiological saline 100, HCO-60, ethanol/surface active agent 80/20",≧7 days
same,Period till solution becomes turbid to crystallize FK506,"[3]; FK 506 10 mg/ml, dilution times with physiological saline 2, Cremophor®EL, ethanol/surface active agent 35/65",≧7 days
same,Period till solution becomes turbid to crystallize FK506,"[3]; FK 506 10 mg/ml, dilution times with physiological saline 2, Cremophor®EL, ethanol/surface active agent 80/20",≧7 days
same,Period till solution becomes turbid to crystallize FK506,"[3]; FK 506 10 mg/ml, dilution times with physiological saline 2, HCO-40, ethanol/surface active agent 40/60",≧7 days
same,Period till solution becomes turbid to crystallize FK506,"[3]; FK 506 10 mg/ml, dilution times with physiological saline 2, HCO-40, ethanol/surface active agent 80/20",≧7 days
same,Period till solution becomes turbid to crystallize FK506,"[3]; FK 506 10 mg/ml, dilution times with physiological saline 2, HCO-60, ethanol/surface active agent 35/65",≧7 days
same,Period till solution becomes turbid to crystallize FK506,"[3]; FK 506 10 mg/ml, dilution times with physiological saline 2, HCO-60, ethanol/surface active agent 60/40",≧7 days
same,Period till solution becomes turbid to crystallize FK506,"[3]; FK 506 10 mg/ml, dilution times with physiological saline 2, HCO-60, ethanol/surface active agent 80/20",≧7 days
same,Period till solution becomes turbid to crystallize FK506,"[3]; FK 506 10 mg/ml, dilution times with physiological saline 100, Cremophor®EL, ethanol/surface active agent 35/65",≧7 days
same,Period till solution becomes turbid to crystallize FK506,"[3]; FK 506 10 mg/ml, dilution times with physiological saline 100, Cremophor®EL, ethanol/surface active agent 80/20",≧7 days
same,Period till solution becomes turbid to crystallize FK506,"[3]; FK 506 10 mg/ml, dilution times with physiological saline 100, HCO-40, ethanol/surface active agent 40/60",≧7 days
same,Period till solution becomes turbid to crystallize FK506,"[3]; FK 506 10 mg/ml, dilution times with physiological saline 100, HCO-40, ethanol/surface active agent 80/20",≧7 days
same,Period till solution becomes turbid to crystallize FK506,"[3]; FK 506 10 mg/ml, dilution times with physiological saline 100, HCO-60, ethanol/surface active agent 35/65",≧7 days
same,Period till solution becomes turbid to crystallize FK506,"[3]; FK 506 10 mg/ml, dilution times with physiological saline 100, HCO-60, ethanol/surface active agent 60/40",≧7 days
same,Period till solution becomes turbid to crystallize FK506,"[3]; FK 506 10 mg/ml, dilution times with physiological saline 100, HCO-60, ethanol/surface active agent 80/20",≧7 days
same,Period till solution becomes turbid to crystallize FK506,"[3]; FK 506 25 mg/ml, dilution times with physiological saline 2, Cremophor®EL, ethanol/surface active agent 35/65",≧7 days
same,Period till solution becomes turbid to crystallize FK506,"[3]; FK 506 25 mg/ml, dilution times with physiological saline 2, Cremophor®EL, ethanol/surface active agent 80/20",≧7 days
same,Period till solution becomes turbid to crystallize FK506,"[3]; FK 506 25 mg/ml, dilution times with physiological saline 2, HCO-40, ethanol/surface active agent 40/60",≧7 days
same,Period till solution becomes turbid to crystallize FK506,"[3]; FK 506 25 mg/ml, dilution times with physiological saline 2, HCO-40, ethanol/surface active agent 80/20",≧7 days
same,Period till solution becomes turbid to crystallize FK506,"[3]; FK 506 25 mg/ml, dilution times with physiological saline 2, HCO-60, ethanol/surface active agent 35/65",≧7 days
same,Period till solution becomes turbid to crystallize FK506,"[3]; FK 506 25 mg/ml, dilution times with physiological saline 2, HCO-60, ethanol/surface active agent 60/40",≧7 days
same,Period till solution becomes turbid to crystallize FK506,"[3]; FK 506 25 mg/ml, dilution times with physiological saline 2, HCO-60, ethanol/surface active agent 80/20",≧7 days
same,Period till solution becomes turbid to crystallize FK506,"[3]; FK 506 25 mg/ml, dilution times with physiological saline 100, Cremophor®EL, ethanol/surface active agent 35/65",≧7 days
same,Period till solution becomes turbid to crystallize FK506,"[3]; FK 506 25 mg/ml, dilution times with physiological saline 100, Cremophor®EL, ethanol/surface active agent 80/20",≧1 days
same,Period till solution becomes turbid to crystallize FK506,"[3]; FK 506 25 mg/ml, dilution times with physiological saline 100, HCO-40, ethanol/surface active agent 40/60",≧7 days
same,Period till solution becomes turbid to crystallize FK506,"[3]; FK 506 25 mg/ml, dilution times with physiological saline 100, HCO-40, ethanol/surface active agent 80/20",≧1 days
same,Period till solution becomes turbid to crystallize FK506,"[3]; FK 506 25 mg/ml, dilution times with physiological saline 100, HCO-60, ethanol/surface active agent 35/65",≧7 days
same,Period till solution becomes turbid to crystallize FK506,"[3]; FK 506 25 mg/ml, dilution times with physiological saline 100, HCO-60, ethanol/surface active agent 60/40",≧1 days
same,Period till solution becomes turbid to crystallize FK506,"[3]; FK 506 25 mg/ml, dilution times with physiological saline 100, HCO-60, ethanol/surface active agent 80/20",≧7 days
same,Period till solution becomes turbid to crystallize FK506,"[3]; FK 506 50 mg/ml, dilution times with physiological saline 2, Cremophor®EL, ethanol/surface active agent 35/65",≧7 days
same,Period till solution becomes turbid to crystallize FK506,"[3]; FK 506 50 mg/ml, dilution times with physiological saline 2, Cremophor®EL, ethanol/surface active agent 80/20",≧1 days
same,Period till solution becomes turbid to crystallize FK506,"[3]; FK 506 50 mg/ml, dilution times with physiological saline 2, HCO-40, ethanol/surface active agent 40/60",≧7 days
same,Period till solution becomes turbid to crystallize FK506,"[3]; FK 506 50 mg/ml, dilution times with physiological saline 2, HCO-40, ethanol/surface active agent 80/20",≧1 days
same,Period till solution becomes turbid to crystallize FK506,"[3]; FK 506 50 mg/ml, dilution times with physiological saline 2, HCO-60, ethanol/surface active agent 35/65",≧7 days
same,Period till solution becomes turbid to crystallize FK506,"[3]; FK 506 50 mg/ml, dilution times with physiological saline 2, HCO-60, ethanol/surface active agent 60/40",≧7 days
same,Period till solution becomes turbid to crystallize FK506,"[3]; FK 506 50 mg/ml, dilution times with physiological saline 2, HCO-60, ethanol/surface active agent 80/20",≧7 days
same,amount of the surface active agent against 1mg of FK506,physchem,about 150 mg
same,concentration of the surface active agent to prepare 5mg/ml aqueous solution FK 506,physchem,87 w/v%
same,concentration of the surface active agent to dissolve 0.1mg of FK 506 in 1ml of water,physchem; calculated from 0.035mg/ml in 0.5w/v% HCO-60 at 20 °C,1.43 w/v%
same,solubility,"physchem; hco-40 5 w/v% aqueous, solubility of FK506",400 µg/mL
same,solubility,"physchem; hco-40 10 w/v% aqueous, solubility of FK506",780 µg/mL
same,solubility,"physchem; hco-40 20 w/v% aqueous, solubility of FK506",1520 µg/mL
same,solubility,"physchem; hco-60 0.1 w/v% aqueous, solubility of FK506",5 µg/mL
same,solubility,"physchem; hco-60 0.3 w/v% aqueous, solubility of FK506",19 µg/mL
same,solubility,"physchem; hco-60 0.5 w/v% aqueous, solubility of FK506",35 µg/mL
same,solubility of FK506,physchem; hco-60 5 w/v% aqueous,290 µg/mL
same,solubility,"physchem; hco-60 5 w/v% aqueous, solubility of FK506",280 µg/mL
same,solubility of FK506,physchem; hco-60 10 w/v% aqueous,570 µg/mL
same,solubility,"physchem; hco-60 10 w/v% aqueous, solubility of FK506",610 µg/mL
same,solubility of FK506,physchem; hco-60 20 w/v% aqueous,1140 µg/mL
same,solubility,"physchem; hco-60 20 w/v% aqueous, solubility of FK506",1150 µg/mL
same,solubility of FK506,physchem; hco-60/hco-10 (4:1) 5 w/v%,270 µg/mL
same,solubility,"physchem; hco-60/hco-10 (4:1) 5 w/v%, solubility of FK506",260 µg/mL
same,solubility of FK506,physchem; hco-60/hco-10 (4:1) 10 w/v%,560 µg/mL
same,solubility,"physchem; hco-60/hco-10 (4:1) 10 w/v%, solubility of FK506",560 µg/mL
same,solubility of FK506,physchem; hco-60/hco-10 (4:1) 20 w/v%,1140 µg/mL
same,solubility,"physchem; hco-60/hco-10 (4:1) 20 w/v%, solubility of FK506",1130 µg/mL
same,solubility,"physchem; water, solubility of FK 506 in water",≤ 3 µg/mL
